According to patent publication US9085555B2, “Complement pathway modulators and uses thereof” (priority 2011, dated 2015):
Counter-ions that a name gives are not always drawn. Like-named read-outs stand apart in the source and are kept apart here.

Target: Factor D (Homo sapiens (Human), UniProt P00746)
Test: biochemical
Type: biochemical

Sequence of Factor D (P00746 26-253): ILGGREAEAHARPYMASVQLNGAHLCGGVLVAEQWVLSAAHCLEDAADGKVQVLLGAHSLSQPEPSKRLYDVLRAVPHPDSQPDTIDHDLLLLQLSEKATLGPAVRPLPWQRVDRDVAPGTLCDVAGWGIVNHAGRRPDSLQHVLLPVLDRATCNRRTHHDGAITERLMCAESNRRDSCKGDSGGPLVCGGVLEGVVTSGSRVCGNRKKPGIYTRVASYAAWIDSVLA

Cc1cc2c(C(N)=O)nn(CC(=O)N3[C@@H]4C[C@@H]4C[C@H]3C(=O)Nc3cccc(Br)n3)c2c(C)n1 [Example 743, 1-{2-[(1R,3S,5R)-3-(6-Bromo-pyridin-2-ylcarbamoyl)-2-aza-bicyclo[3.1.0]hex-2-yl]-2-oxo-ethyl}-5,7-dimethyl-1H-pyrazolo[3,4-c]pyridine-3-carboxylic acid amide]
IC50 (read-out: IC50): 5 nM

COC(=O)c1ccc2c(C(C)=O)cn(CC(=O)N3C[C@](C)(F)C[C@H]3C(=O)NCc3cccc(Cl)c3F)c2c1 [Example 548, 3-Acetyl-1-{2-[(2S,4R)-2-(3-chloro-2-fluoro-benzylcarbamoyl)-4-fluoro-4-methyl-pyrrolidin-1-yl]-2-oxo-ethyl}-1H-indole-6-carboxylic acid methyl ester]
IC50 (read-out: IC50): 363 nM

NC(=O)n1cc(NC(=O)N2C[C@@H](N)C[C@H]2C(=O)NCc2cccc(O)c2)c2ccccc21 [Example 35, (2S,4S)-4-Amino-pyrrolidine-1,2-dicarboxylic acid 1-[(1-carbamoyl-1H-indol-3-yl)-amide] 2-(3-hydroxy-benzylamide)]
IC50 (read-out: IC50): 2850 nM

NC(=O)n1cc(NC(=O)N2[C@@H]3C[C@@H]3C[C@H]2C(=O)NCc2cccc(Cl)c2F)c2ccc(CC(=O)O)cc21 [Example 378, (1-Carbamoyl-3-{[(1R,3S,5R)-3-(3-chloro-2-fluoro-benzylcarbamoyl)-2-aza-bicyclo[3.1.0]hexane-2-carbonyl]-amino}-1H-indol-6-yl)-acetic acid]
IC50 (read-out: IC50): 24 nM

CO[C@H]1[C@@H](C(=O)Nc2cccc(OC(F)(F)F)c2F)N(C(=O)Cn2nc(C(C)=O)c3cc(OCc4ncccn4)ccc32)C[C@@H]1F [Example 638, (2S,3S,4S)-1-{2-[3-Acetyl-5-(pyrimidin-2-ylmethoxy)-indazol-1-yl]-acetyl}-4-fluoro-3-methoxy-pyrrolidine-2-carboxylic acid (2-fluoro-3-trifluoromethoxy-phenyl)-amide]
IC50 (read-out: IC50): 5 nM

NC(=O)n1cc(NC(=O)N2CC3CC2(C(=O)NCc2cccc(Cl)c2F)C3)c2ccccc21 [Example 136, 2-Aza-bicyclo[2.1.1]hexane-1,2-dicarboxylic acid 2-[(1-carbamoyl-1H-indol-3-yl)-amide] 1-(3-chloro-2-fluoro-benzylamide)]
IC50: 17900 nM

NC(=O)n1cc(NC(=O)N2C[C@H](N)[C@@H](O)[C@H]2C(=O)NCc2cccc(Cl)c2F)c2ccccc21 [Example 416, 2S,3R,4S)-4-Amino-3-hydroxy-pyrrolidine-1,2-dicarboxylic acid 1-[(1-carbamoyl-1H-indol-3-yl)-amide]2-(3-chloro-2-fluoro-benzylamide]
IC50 (read-out: IC50): 315 nM

NC(=O)n1cc(NC(=O)N2C[C@H](F)C[C@H]2CNS(=O)(=O)c2cccc(Br)c2)c2ccccc21 [Example 108, 3-({(2S,4R)-4-Fluoro-2-[(3-bromo-benzenesulfonylamino)-methyl]-pyrrolidine-1-carbonyl}-amino)-indole-1-carboxylic acid amide]
IC50 (read-out: IC50): 55 nM

NC(=O)n1cc(NC(=O)N2C3CC3C[C@H]2C(=O)Nc2cccc(OC(F)(F)F)c2)c2ccc(F)cc21 (stereo partly drawn) [Example 297, (1R,3S,5R)-2-Aza-bicyclo[3.1.0]hexane-2,3-dicarboxylic acid 2-[(1-carbamoyl-6-fluoro-1H-indol-3-yl)-amide] 3-[(3-trifluoromethoxy-phenyl)-amide]]
IC50 (read-out: IC50): 350 nM

O=C(CO)c1cn(CC(=O)N2[C@@H]3C[C@@H]3C[C@H]2C(=O)NCc2cccc(Cl)c2F)c2ccccc12 [Example 556, (1R,3S,5R)-2-{2-[3-(2-Hydroxy-acetyl)-indol-1-yl]-acetyl}-2-aza-bicyclo[3.1.0] hexane-3-carboxylic acid 3-chloro-2-fluoro-benzylamide]
IC50 (read-out: IC50): 25 nM

NC(=O)n1cc(NC(=O)N2CCS[C@H]2C(=O)Nc2cccc(OC(F)(F)F)c2)c2ccccc21 [Example 267, (S)-Thiazolidine-2,3-dicarboxylic acid 3-[(1-carbamoyl-1H-indol-3-yl)-amide] 2-[(3-trifluoromethoxy-phenyl)-amide]]
IC50 (read-out: IC50): 83 nM

CNC(=O)n1cc(NC(=O)N2[C@H](C(=O)NCc3cccc(Cl)c3F)C[C@@]3(COC)C[C@@H]23)c2ccccc21 [Example 284, (1R,3S,5S)-5-Methoxymethyl-2-aza-bicyclo[3.1.0]hexane-2,3-dicarboxylic acid 3-(3-chloro-2-fluoro-benzylamide) 2-[(1-methylcarbamoyl-1H-indol-3-yl)-amide]]
IC50 (read-out: IC50): 286 nM

CC(=O)c1nn(CC(=O)N2[C@@H]3C[C@@H]3C[C@H]2C(=O)NC2(c3cccc(Cl)c3F)COC2)c2ncccc12 [Example 633, (1R,3S,5R)-2-[2-(3-Acetyl-pyrazolo[3,4-b]pyridin-1-yl)-acetyl]-2-aza-bicyclo [3.1.0]hexane-3-carboxylic acid [3-(3-chloro-2-fluoro-phenyl)-oxetan-3-yl]-amide]
IC50 (read-out: IC50): 55 nM

NC(=O)n1cc(NC(=O)N2C[C@@H](N)C[C@H]2C(=O)NC2CCCCC2)c2ccccc21 [Example 77, (2S,4S)-4-Amino-pyrrolidine-1,2-dicarboxylic acid 1-[(1-carbamoyl-1H-indol-3-yl)-amide] 2-cyclohexylamide]
IC50 (read-out: IC50): 14600 nM

CC(=O)c1nn(CC(=O)N2C[C@H](F)C[C@H]2C(=O)NCc2cccc(Cl)c2F)c2cnccc12 [Example 623, (2S,4R)-1-[2-(3-Acetyl-pyrazolo[3,4-c]pyridin-1-yl)-acetyl]-4-fluoro-pyrrolidine-2-carboxylic acid 3-chloro-2-fluoro-benzylamide formate]
IC50 (read-out: IC50): 24 nM

CC(=O)n1cc(NC(=O)N2[C@H](C(=O)NCc3cccc(Cl)c3F)C[C@@]3(CO)C[C@@H]23)c2ccccc21 [Example 275, (1R,3S,5S)-5-Hydroxymethyl-2-aza-bicyclo[3.1.0]hexane-2,3-dicarboxylic acid 2-[(1-acetyl-1H-indol-3-yl)-amide] 3-(3-chloro-2-fluoro-benzylamide)]
IC50 (read-out: IC50): 30 nM

CC(=O)n1cc(NC(=O)N2CCC[C@H]2C(=O)Nc2cccc(OC(F)(F)F)c2)c2ccccc21 [Example 271, (S)-Pyrrolidine-1,2-dicarboxylic acid 1-[(1-acetyl-1H-indol-3-yl)-amide] 2-[(3-trifluoromethoxy-phenyl)-amide]]
IC50 (read-out: IC50): 629 nM

CC(=O)c1cn(CC(=O)N2[C@@H]3C[C@@H]3C[C@H]2C(=O)NCc2cc(-c3nnn[nH]3)cc(Cl)c2F)c2ccccc12 [Example 525, (1R,3S,5R)-2-[2-(3-Acetyl-indol-1-yl)-acetyl]-2-aza-bicyclo[3.1.0]hexane-3-carboxylic acid 3-chloro-2-fluoro-5-(1H-tetrazol-5-yl)-benzylamide]
IC50 (read-out: IC50): 36 nM

CC(=O)c1cn(CC(=O)N2C[C@H](F)C[C@H]2C(=O)NCc2cccc(Cl)c2F)c2ncccc12 [Example 547, (2S,4R)-1-[2-(3-Acetyl-pyrrolo[2,3-b]pyridin-1-yl)-acetyl]-4-fluoro-pyrrolidine-2-carboxylic acid 3-chloro-2-fluoro-benzylamide]
IC50 (read-out: IC50): 38 nM

CC(=O)c1cn(CC(=O)N2C[C@](C)(F)C[C@H]2C(=O)NCc2cccc(Cl)c2F)c2cc(C(=O)O)ccc12 [Example 599, 3-Acetyl-1-{2-[(2S,4R)-2-(3-chloro-2-fluoro-benzylcarbamoyl)-4-fluoro-4-methyl-pyrrolidin-1-yl]-2-oxo-ethyl}-1H-indole-6-carboxylic acid]
IC50 (read-out: IC50): 46 nM

CC(=O)c1cn(CC(=O)N2C[C@H](F)C[C@H]2C(=O)NCc2cccc(Cl)c2F)c2cc(C(=O)O)ccc12 [Example 597, 3-Acetyl-1-{2-[(2S,4R)-2-(3-chloro-2-fluoro-benzylcarbamoyl)-4-fluoro-pyrrolidin-1-yl]-2-oxo-ethyl}-1H-indole-6-carboxylic acid]
IC50 (read-out: IC50): 14 nM

O=C(CO)c1cn(CC(=O)N2C[C@H](F)C[C@H]2C(=O)NCc2cccc(Cl)c2F)c2ccccc12 [Example 563, (2S,4R)-4-Fluoro-1-{2-[3-(2-hydroxy-acetyl)-indol-1-yl]-acetyl}-pyrrolidine-2-carboxylic acid 3-chloro-2-fluoro-benzylamide]
IC50 (read-out: IC50): 42 nM

NC[C@@]1(O)C[C@@H](C(=O)NCc2cccc(Cl)c2F)N(C(=O)Nc2cn(C(N)=O)c3ccccc23)C1 [Example 407, 2S,4S)-4-Aminomethyl-4-hydroxy-pyrrolidine-1,2-dicarboxylic acid 1-[(1-carbamoyl-1H-indol-3-yl)-amide]2-(3-chloro-2-fluoro-benzylamide]
IC50 (read-out: IC50): 1050 nM

NC(=O)n1cc(NC(=O)N2CC[C@@H]3C[C@@]32C(=O)NCc2cccc(Cl)c2F)c2ccccc21 [Example 149, (1S,5R)-2-Aza-bicyclo[3.1.0]hexane-1,2-dicarboxylic acid 2-[(1-carbamoyl-1H-indol-3-yl)-amide] 1-(3-chloro-2-fluoro-benzylamide)]
IC50 (read-out: IC50): 10800 nM

NC(=O)n1cc(NC(=O)N2[C@@H]3C[C@@H]3C[C@H]2C(=O)Nc2cccc(OC(F)(F)F)c2)c2cc(OCCO)ccc21 [Example 381, (1R,3S,5R)-2-Aza-bicyclo[3.1.0]hexane-2,3-dicarboxylic acid 2-{[1-carbamoyl-5-(2-hydroxy-ethoxy)-1H-indol-3-yl]-amide}3-[(3-trifluoromethoxy-phenyl)-amide]]
IC50 (read-out: IC50): 57 nM

CC(=O)c1nn(CC(=O)N2[C@@H]3C[C@@H]3C[C@H]2C(=O)Nc2cccc(Br)n2)c2ccncc12 [Example 740, (1R,3S,5R)-2-[2-(3-Acetyl-pyrazolo[4,3-c]pyridin-1-yl)-acetyl]-2-aza-bicyclo[3.1.0] hexane-3-carboxylic acid (6-bromo-pyridin-2-yl)-amide]
IC50 (read-out: IC50): 13 nM

CC(=O)c1cn(CC(=O)N2C[C@H](F)C[C@H]2C(=O)NCc2cccc(Cl)c2F)c2cc(OCc3nn[nH]n3)ccc12 [Example 586, (2S,4R)-1-{2-[3-Acetyl-6-(1H-tetrazol-5-ylmethoxy)-indol-1-yl]-acetyl}-4-fluoro-pyrrolidine-2-carboxylic acid 3-chloro-2-fluoro-benzylamide]
IC50 (read-out: IC50): 132 nM

2S,3R)-3-(2-Methoxy-ethylamino)-pyrrolidine-1,2-dicarboxylic acid 1-[(1-carbamoyl-1H-indol-3-yl)-amide]2-(3-chloro-2-fluoro-benzylamide [Example 423]
IC50 (read-out: IC50): 780 nM
